Target: T1, HDAC10 (Homo sapiens, UniProt Q969S8)
T1 sequence (Q969S8 1-669): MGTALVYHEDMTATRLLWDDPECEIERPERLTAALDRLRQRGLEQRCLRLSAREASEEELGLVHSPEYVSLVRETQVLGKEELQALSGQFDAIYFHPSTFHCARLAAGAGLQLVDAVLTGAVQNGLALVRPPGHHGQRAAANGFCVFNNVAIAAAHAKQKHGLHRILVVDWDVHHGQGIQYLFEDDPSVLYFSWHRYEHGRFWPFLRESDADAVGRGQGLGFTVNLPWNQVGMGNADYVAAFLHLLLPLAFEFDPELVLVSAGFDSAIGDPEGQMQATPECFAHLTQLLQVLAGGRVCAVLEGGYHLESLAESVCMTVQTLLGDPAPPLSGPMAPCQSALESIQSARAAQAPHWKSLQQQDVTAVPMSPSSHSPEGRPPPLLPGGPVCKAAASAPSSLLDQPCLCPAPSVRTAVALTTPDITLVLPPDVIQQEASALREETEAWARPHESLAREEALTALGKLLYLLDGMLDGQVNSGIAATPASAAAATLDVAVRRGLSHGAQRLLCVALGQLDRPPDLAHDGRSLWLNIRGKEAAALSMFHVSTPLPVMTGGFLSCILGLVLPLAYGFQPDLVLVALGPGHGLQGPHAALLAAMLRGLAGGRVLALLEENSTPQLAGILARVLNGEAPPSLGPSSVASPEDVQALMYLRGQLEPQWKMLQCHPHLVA
Test: Biochemical assay for HDAC inhibition, HDAC10
Details: read-out: IC50 HDAC10; Table 1, purified enzyme; unit inferred

An IC50 of 6.75 nM was found for `Cn1cc(CNCC2CCN(c3ncc(C(=O)NO)cn3)CC2)c2ccccc21` [quisinostat] in this work.
